Legend:
PB-1 antibody = experiment: Competitive ELISA of GAL691 and known AGEs against PB-1 (Example 31); type: binding, mouse; conditions: immobilized A-peak-BSA; competitor 0.04 to 2.5 mM; PB-1 0.1 μg/mL
Procedure: Competitive ELISA was conducted using the reagents described in Example 13. A solution of A-peak-BSA prepared into 1 μg/mL in a coating solution was added at 100 μL/well to a 96-well microtiter plate (Costar) and incubated overnight at 4° C.
(§1) Each well after the immobilization treatment was washed three times with a washing solution (300 μL), and a blocking solution (200 μL) was added thereto and left at room temperature for 1 hour.
GAL691 (prepared in Example 16), GLAP (prepared in Example 12), Lys-hydroxy-triosidine (prepared in Example 17), GA-pyridine (prepared in Example 28), GOLD (prepared in Example 29), and Z-Lys were each dissolved in a phosphate buffer solution (0.2 M, pH 7.4) to prepare a 100 mM solution. Then, a 10 mM solution was prepared by dilution 10-fold with a diluting solution containing BSA (1 mg/mL, FUJIFILM Wako Pure Chemical Corp.). Sample solutions of 4-fold dilution series of 0.04, 0.16, 0.63, and 2.5 mM were further prepared with a diluting solution containing a 10% (v/v) phosphate buffer solution and 1 mg/mL BSA. Ten-fold dilutions of a phosphate buffer solution with a diluting solution containing 1 mg/mL BSA were prepared as blank solutions containing no sample in the same way as above. A 0.1 μg/mL solution of the PB-1 antibody was prepared with a diluting solution containing 1 mg/mL BSA.
Each well treated with the blocking solution was washed three times with a washing solution (300 μL), and the sample solutions of 4-fold dilution series (50 μL each) and the PB-1 antibody dilution solution (50 μL) were added thereto, stirred with a plate mixer for 2 minutes, and then incubated at room temperature for 1 hour.
After the competitive reaction, each well was washed three times with a washing solution (300 μL), and peroxidase-labeled anti-mouse IgG (H+L) polyclonal antibody, F(ab′)2 fragment (Kirkegaard & Perry Laboratories, Inc.) diluted into 0.05 μg/mL with a diluting solution containing 1 mg/mL BSA was added at 100 μL/well and left standing at room temperature for 1 hour.
After washing three times with a washing solution (300 μL), a substrate solution (ELISA POD substrate TMB kit (Popular), Nacalai Tesque, Inc.) was added at 100 μL/well and incubated at room temperature for 10 minutes under light shielding. Then, color development was terminated by the addition of 2 N sulfuric acid (50 μL).
Absorbance was measured at a dominant wavelength of 450 nm and a sub-wavelength of 650 nm with a microplate reader (Cytation 5, BioTek Instrument Inc.), and the absorbance at the sub-wavelength was subtracted from the absorbance at the dominant wavelength. Change in the absorbance of GAL691, GLAP, Lys-hydroxy-triosidine, GA-pyridine, GOLD, and Z-Lys was indicated as relative values to the absorbance of the blank solution.

[1] = test system: POD-labeled novel monoclonal antibody (SJ-5); experiment: Competitive ELISA of GAL13, GLAP, Z-Lys-OH against SJ-5 (Example 13); type: binding, mouse; conditions: immobilized Glycer-AGEs-BSA; competitor 0.0063 to 2 mg/mL
Procedure: A solution of BSA containing AGEs derived from glyceraldehyde (stock solution: 10 mg/mL PBS solution) prepared into 1 μg/mL in a coating solution was added at 100 μL/well to a 96-well microtiter plate (COSTAR) and incubated overnight at 4° C.
as §1
GAL13 (prepared in Example 2), GLAP (prepared in Example 12), and Z-Lys-OH (Tokyo Chemical Industry Co., Ltd.) were each dissolved in a phosphate buffer solution (0.2 M, pH 7.4) to prepare a 20 mg/mL solution. Sample solutions of 2-fold dilution series from 0.0063 to 2 mg/mL (6 points) were further prepared by dilution with a diluting solution. A POD-labeled novel monoclonal antibody (SJ-5) solution was diluted 16,000-fold with a diluting solution containing BSA (1 mg/mL, FUJIFILM Wako Pure Chemical Corp.) to prepare a POD-labeled SJ-5 antibody dilution solution. […]
Absorbance was measured at a dominant wavelength of 450 nm and a sub-wavelength of 650 nm with a microplate reader (Cytation 5, BioTek Instrument Inc.), and the absorbance at the sub-wavelength was subtracted from the absorbance at the dominant wavelength.

[2] = test system: HUVEC (human umbilical vein endothelial cells); experiment: Neutralization test of vascular endothelial cell lumen formation inhibition (Example 14); type: cell-based; conditions: Matrigel matrix; 8 hours culture
Procedure: Matrigel matrix (Corning Inc.) was placed in a refrigerator and thawed overnight. The thawed Matrigel matrix was added at 300 μL/well to a 12-well plate (Corning Inc.) and hardened by still standing at 37° C. for 1 hour in a CO2 incubator (ESPEC Corp.).
(§2) 10 μL of Glycer-AGEs-BSA (10 mg/mL) prepared in Example 1 or 10 μL of control BSA (10 mg/mL), phosphate-buffered saline (PBS, FUJIFILM Wako Pure Chemical Corp.), and 90 μL of SJ-5 (10 mg/mL) or a control antibody (10 mg/mL) were added to a 1.5 mL tube (Watson) and left standing at room temperature for 10 minutes. Then, a supernatant was recovered by centrifugation at 14000 rpm for 15 minutes using a centrifuge (Thermo Fisher Scientific Inc.).
HUVEC (human umbilical vein endothelial cells, National Institutes of Biomedical Innovation, Health and Nutrition, JCRB cell bank) was cultured in a 10 cm dish (Corning Inc.) using 10 mL of a medium for HUVEC (KAC Co., Ltd.).
The cultured HUVEC was washed with 10 mL of PBS. Then, 1 mL of trypsin-EDTA (FUJIFILM Wako Pure Chemical Corp.) was added thereto and left standing at room temperature for 3 minutes. […]
After the centrifugation, the supernatant was discarded, and precipitated cells were resuspended by the addition of 1 mL of a medium for HUVEC. […] Then, the number of live cells was counted in Auto Cell Counter EVE (NanoEnTek Inc.). […]

CD31 = experiment: Endothelial-to-mesenchymal transition inhibition test, real-time PCR (Example 15); type: cell-based, human; conditions: HUVEC; β-actin internal standard; 8 hours
Procedure: (§3) 10 μL of Glycer-AGEs-BSA (10 mg/mL) prepared in Example 1, PBS, and 90 μL of SJ-5 (10 mg/mL) or a control antibody (10 mg/mL) were added to a 1.5 mL tube (Watson). Alternatively, 90 μL of a PBS solution of control BSA (10 mg/mL) was added. These solutions were left standing at room temperature for 10 minutes. Then, a supernatant was recovered by centrifugation at 14000 rpm for 15 minutes using a centrifuge (Thermo Fisher Scientific Inc.).
(§4) HUVEC was cultured in a 10 cm dish using 10 mL of a medium for HUVEC.
(§5) The cultured HUVEC was washed with 10 mL of PBS. Then, 1 mL of trypsin-EDTA was added thereto and left standing at room temperature for 3 minutes. HUVEC thus left standing was confirmed to be detached from the dish, and trypsin-EDTA was neutralized by the addition of 10 mL of a medium for HUVEC. After the neutralization, the whole amount was transferred to a 50 mL tube and centrifuged at 1500 rpm for 3 minutes using a centrifuge.
(§6) After the centrifugation, the supernatant was discarded, and precipitated cells were resuspended by the addition of 1 mL of a medium for HUVEC. A 10 μL aliquot from the resuspension was mixed with 10 μL of Trypan Blue, and 10 μL thereof was added to a counting chamber. Then, the number of live cells was counted in Auto Cell Counter EVE. The cell suspension was diluted into 2.5×10^5 cells/mL with a medium for HUVEC and inoculated at 400 μL/well to the Matrigel prepared in (1). After the inoculation, each reaction solution prepared in (2) was added at 100 μL/well, followed by culture for 8 hours in a CO2 incubator.
(§7) Each well was washed three times with 1 mL of PBS, and Cell Recovery Solution (Corning Inc.) was added at 500 μL/well.
(§8) The cells and the Matrigel matrix were scraped off using Blue Chip (Watson), recovered into a 1.5 mL tube, and transferred to the 1.5 mL tube after rinsing of each well again with 500 μL of Cell Recovery Solution. The 1.5 mL tube was mixed by inversion five times and then left standing on ice for 1 hour to confirm that the Matrigel matrix was completely degraded. After the Matrigel matrix degradation, a supernatant was discarded by centrifugation at 800 rpm at 4° C. Precipitated cells were gently suspended in 1 mL of ice-cooled PBS and centrifuged at 800 rpm at 4° C. to discard a supernatant. Precipitated cells were gently suspended again in 1 mL of ice-cooled PBS and centrifuged at 800 rpm at 4° C.
(§9) 125 μL of CellAmp Washing Buffer attached to the kit was added to the cells precipitated by centrifugation, and mixed. […]
(§10) After the addition, real-time PCR was performed with QuantStudio™ 12K Flex real-time PCR system (Thermo Fisher Scientific Inc.) to quantify gene expression levels. […]

α-SMA = experiment: as above; type: cell-based, human; conditions: HUVEC; β-actin internal standard; 8 hours
Procedure: as §3, §4, §5, §6, §7, §8, §9, §10

HUVEC = experiment: Neutralization test of vascular endothelial cell lumen formation inhibition using PB-1 (Example 35); type: cell-based, human; conditions: Matrigel matrix; 8-hour culture
Procedure: Matrigel matrix was prepared by the same operation as in Example 14.
as §2, with “1,” for “1 or”, “of” for “of control BSA (10 mg/mL),”, “the PB-1 antibody” for “SJ-5”
(3) A lumen formation inhibition test was conducted by the same operation as in Example 14. As shown in the drawing, HUVEC was confirmed to form a lumen in the Matrigel matrix in the control BSA addition group. […] Furthermore, this inhibition of lumen formation was neutralized by the reaction solution of PB-1.

Row | Compound | change in absorbance relative to blank (competition for PB-1 binding) (PB-1 antibody) | change in absorbance (competition for SJ-5 binding) [1] | other results
1 | CC(=O)NC(CCCC[n+]1ccc(CO)c(O)c1)C(=O)O (stereo not shown) [GA-pyridine] | no reduction in absorbance was observed | – | –
2 | NCCCC[C@H](NC(=O)OCc1ccccc1)C(=O)O [Z-Lys-OH, N^α-Carbobenzoxy-L-lysine] | no reduction in absorbance was observed | reduction in absorbance was observed for neither | –
3 | CC(=O)N[C@@H](CCCC[n+]1cc(O)cc(CO)c1)C(=O)O [GLAP] | no reduction in absorbance was observed | reduction in absorbance was observed for neither | –
4 | CC(=O)NC(CCCCn1cc[n+](CCCCC(NC(C)=O)C(=O)O)c1)C(=O)O (stereo not shown) [GOLD] | no reduction in absorbance was observed | – | –
5 | Glycer-AGEs-BSA: bovine serum albumin containing AGEs derived from glyceraldehyde [reference compound] | – | – | effect on lumen formation of HUVEC [2]: inhibited lumen formation; expression level of CD31 (CD31): decreased; expression level of α-SMA (α-SMA): increased; effect on lumen formation of HUVEC (HUVEC): inhibited lumen formation
